Assay results: PubChem BioAssay AID330 (DTP/NCI, 2004)
Several values for one entry are separate records, joined by “and”; a condition that tells them apart may be missing. Equal values may be shown once. Inconclusive results and toxic doses are left out.

Tested on: P388 leukemia ip, CD2F1 mice, survival T/C
Assay: NCI In Vivo Anticancer Drug Screen. Data for tumor model P388 Leukemia (intraperitoneal) in CD2F1 (CDF1) mice
Settings: endpoint: median survival time, higher = longer survival
Procedure, shortened: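 Mice carrying the transplanted tumor received test compound or vehicle. Survival was recorded in each group, and the value is the treated-group measurement divided by that of the vehicle-treated control group.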

[1] = dose: 12.5 mg/kg/injection, schedule: Q01DX009 (ip), vehicle: Klucel (hydroxypropylcellulose) (HPC)
[2] = dose: 25.0 mg/kg/injection, schedule: Q01DX009 (ip), vehicle: Klucel (hydroxypropylcellulose) (HPC)
[3] = dose: 50.0 mg/kg/injection, schedule: Q01DX009 (ip), vehicle: Klucel (hydroxypropylcellulose) (HPC)
[4] = dose: 100.0 mg/kg/injection, schedule: Q01DX009 (ip), vehicle: Klucel (hydroxypropylcellulose) (HPC)
[5] = dose: 60.0 mg/kg/injection, schedule: Q01DX005 (ip), vehicle: saline with Tween-80
[6] = dose: 120.0 mg/kg/injection, schedule: Q01DX005 (ip), vehicle: saline with Tween-80
[7] = dose: 6.25 mg/kg/injection, schedule: Q01DX009 (ip), vehicle: saline with Tween-80
[8] = dose: 12.5 mg/kg/injection, schedule: Q01DX009 (ip), vehicle: saline with Tween-80
[9] = dose: 50.0 mg/kg/injection, schedule: Q01DX005 (ip), vehicle: saline with Tween-80
[10] = dose: 100.0 mg/kg/injection, schedule: Q01DX005 (ip), vehicle: saline with Tween-80
[11] = dose: 25.0 mg/kg/injection, schedule: Q01DX009 (ip), vehicle: saline with Tween-80
[12] = dose: 50.0 mg/kg/injection, schedule: Q01DX009 (ip), vehicle: saline with Tween-80
[13] = dose: 50.0 mg/kg/injection, schedule: Q04DX003 (ip), vehicle: saline with Tween-80
[14] = dose: 100.0 mg/kg/injection, schedule: Q04DX003 (ip), vehicle: saline with Tween-80
[15] = dose: 200.0 mg/kg/injection, schedule: Q04DX003 (ip), vehicle: saline with Tween-80
[16] = dose: 100.0 mg/kg/injection, schedule: Q01DX009 (ip), vehicle: saline with Tween-80
[17] = dose: 200.0 mg/kg/injection, schedule: Q01DX009 (ip), vehicle: saline with Tween-80
[18] = dose: 400.0 mg/kg/injection, schedule: Q01DX009 (ip), vehicle: saline with Tween-80
[19] = dose: 200.0 mg/kg/injection, schedule: Q01DX009 (ip), vehicle: Klucel (hydroxypropylcellulose) (HPC)
[20] = dose: 25.0 mg/kg/injection, schedule: Q01DX005 (ip), vehicle: saline with Tween-80

NCCSc1cc(O)c2c(c1N)C(=O)c1ccccc1C2=O
T/C [1]: 106 % of control
T/C [2]: 104 % of control
T/C [3]: 106 % of control
T/C [4]: 105 % of control

N#Cc1nc(CC(=O)c2ccccn2)c(CC(=O)c2ccccn2)nc1C#N
T/C [5]: 111 % of control
T/C [6]: 93 % of control

CC(=O)N/N=C/C=C/c1ccccc1
T/C (dose: 3.13 mg/kg/injection, schedule: Q01DX009 (ip), vehicle: saline with Tween-80): 117 % of control
T/C [7]: 106 % of control
T/C [8]: 104 % of control

C=CCOc1cc2c(cc1C(C)c1ccc(F)cc1)OCO2 (stereo not given)
T/C [9]: 100 % of control
T/C [10]: 104 % of control
T/C (dose: 200.0 mg/kg/injection, schedule: Q01DX005 (ip), vehicle: saline with Tween-80): 100 % of control

NC(=S)/C(N)=N/Nc1ccc(Cl)cc1
T/C [7]: 104 % of control
T/C [8]: 103 % of control
T/C [11]: 106 % of control
T/C [12]: 116 % of control

Cc1cc(C)c(S(=O)(=O)OCC2OC(OC3(COS(=O)(=O)c4c(C)cc(C)cc4C)OC(COS(=O)(=O)c4c(C)cc(C)cc4C)C(O)C3O)C(O)C(O)C2O)c(C)c1 (stereo not given)
T/C [2]: 107 % of control
T/C [3]: 99 % of control

CC(=O)Nn1cnc2ccccc2c1=O
T/C (dose: 25.0 mg/kg/injection, schedule: Q04DX003 (ip), vehicle: saline with Tween-80): 97 % of control
T/C [13]: 90 % of control
T/C [14]: 93 % of control
T/C [15]: 101 % of control

CCOC(=O)c1cc(OC(C)=O)c2ccc(OC)c(OC)c2c1
T/C (dose: 6.25 mg/kg/injection, schedule: Q01DX009 (ip), vehicle: distilled water + Tween-80): 101 % of control and 105 % of control and 90 % of control
T/C (dose: 50.0 mg/kg/injection, schedule: Q01DX009 (ip), vehicle: distilled water + Tween-80): 91 % of control and 93 % of control and 97 % of control
T/C (dose: 100.0 mg/kg/injection, schedule: Q01DX009 (ip), vehicle: distilled water + Tween-80): 91 % of control
T/C (dose: 200.0 mg/kg/injection, schedule: Q01DX009 (ip), vehicle: distilled water + Tween-80): 93 % of control

C=CCC12CC(O)C(O)CC1(O)OC(c1cc(OC)c(OC)c(OC)c1)C2C (stereo not given)
T/C (dose: 1.25 mg/kg/injection, schedule: Q01DX005 (ip), vehicle: acid diluted with saline): 115 % of control
T/C (dose: 2.5 mg/kg/injection, schedule: Q01DX005 (ip), vehicle: acid diluted with saline): 102 % of control
T/C (dose: 5.0 mg/kg/injection, schedule: Q01DX005 (ip), vehicle: acid diluted with saline): 100 % of control
T/C (dose: 10.0 mg/kg/injection, schedule: Q01DX005 (ip), vehicle: acid diluted with saline): 93 % of control

Cc1ccc2c(c1)-c1oc(=O)c(C(N)=O)cc1C(C)O2 (stereo not given)
T/C [5]: 92 % of control
T/C [6]: 89 % of control
T/C (dose: 240.0 mg/kg/injection, schedule: Q01DX005 (ip), vehicle: saline with Tween-80): 87 % of control

COc1ccc(N=C/C=C/c2ccccc2)cc1
T/C [16]: 118 % of control
T/C [17]: 118 % of control
T/C [18]: 118 % of control

CCC(C)(CC(=O)O)c1ccccc1 (stereo not given)
T/C (dose: 25.0 mg/kg/injection, schedule: Q04DX003 (ip), vehicle: Klucel (hydroxypropylcellulose) (HPC)): 108 % of control
T/C (dose: 50.0 mg/kg/injection, schedule: Q04DX003 (ip), vehicle: Klucel (hydroxypropylcellulose) (HPC)): 111 % of control
T/C (dose: 100.0 mg/kg/injection, schedule: Q04DX003 (ip), vehicle: Klucel (hydroxypropylcellulose) (HPC)): 112 % of control
T/C (dose: 200.0 mg/kg/injection, schedule: Q04DX003 (ip), vehicle: Klucel (hydroxypropylcellulose) (HPC)): 115 % of control

Cc1c(NC(=O)Nc2c(Cl)cccc2Cl)c(=O)n(-c2ccccc2)n1C
T/C [3]: 102 % of control
T/C [4]: 106 % of control
T/C [19]: 97 % of control

C[Si](C)(C)/N=C/O[Si](C)(C)C
T/C (dose: 60.0 mg/kg/injection, schedule: Q01DX005 (ip), vehicle: saline): 100 % of control
T/C (dose: 120.0 mg/kg/injection, schedule: Q01DX005 (ip), vehicle: saline): 101 % of control
T/C (dose: 240.0 mg/kg/injection, schedule: Q01DX005 (ip), vehicle: saline): 108 % of control

CCCCCCCCCCCOC(=O)c1ccc(O)cc1
T/C [8]: 98 % of control
T/C [11]: 102 % of control
T/C [12]: 105 % of control and 106 % of control
T/C [16]: 103 % of control

Nc1nc(C(Br)Br)c([N+](=O)[O-])c(=O)[nH]1
T/C (dose: 12.0 mg/kg/injection, schedule: Q01DX005 (ip), vehicle: saline with Tween-80): 97 % of control
T/C (dose: 12.5 mg/kg/injection, schedule: Q01DX005 (ip), vehicle: saline with Tween-80): 100 % of control
T/C [20]: 104 % of control and 94 % of control
T/C [9]: 112 % of control and 97 % of control

Ic1ccc(N=Cc2ccc(C=Nc3ccc(I)cc3)cc2)cc1
T/C [1]: 99 % of control
T/C [2]: 95 % of control
T/C [3]: 100 % of control
T/C [4]: 86 % of control
T/C [19]: 89 % of control

C=C(Cn1cc(F)c(=O)n(CC(=C)C(=O)OCC)c1=O)C(=O)OCC
T/C (dose: 11.25 mg/kg/injection, schedule: Q04DX002 (ip), vehicle: distilled water + Tween-80): 100 % of control
T/C (dose: 22.5 mg/kg/injection, schedule: Q04DX002 (ip), vehicle: distilled water + Tween-80): 93 % of control
T/C (dose: 45.0 mg/kg/injection, schedule: Q04DX002 (ip), vehicle: distilled water + Tween-80): 95 % of control
T/C (dose: 90.0 mg/kg/injection, schedule: Q04DX002 (ip), vehicle: distilled water + Tween-80): 90 % of control
T/C (dose: 180.0 mg/kg/injection, schedule: Q04DX002 (ip), vehicle: distilled water + Tween-80): 86 % of control

Cc1c(COC(=O)NC(C)C)c(COC(=O)NC(C)C)c2n1CS(=O)(=O)C2
T/C [20]: 159 % of control
T/C [9]: 184 % of control and 188 % of control
T/C [10]: 218 % of control

COc1ccccc1/C(=N/Nc1ccccc1)[N+](=O)[O-]
T/C (dose: 50.0 mg/kg/injection, schedule: Q01DX009 (ip), vehicle: saline + Tween-80 + alcohol): 106 % of control
T/C (dose: 100.0 mg/kg/injection, schedule: Q01DX009 (ip), vehicle: saline + Tween-80 + alcohol): 101 % of control
T/C (dose: 200.0 mg/kg/injection, schedule: Q01DX009 (ip), vehicle: saline + Tween-80 + alcohol): 109 % of control

O=C(O)CC1OCC=C2CN3CCC45c6ccccc6NC4C1C2CC35 (stereo not given)
T/C (dose: 0.93 mg/kg/injection, schedule: Q01DX005 (ip), vehicle: Klucel (hydroxypropylcellulose) (HPC)): 100 % of control
T/C (dose: 1.87 mg/kg/injection, schedule: Q01DX005 (ip), vehicle: Klucel (hydroxypropylcellulose) (HPC)): 98 % of control
T/C (dose: 7.5 mg/kg/injection, schedule: Q01DX005 (ip), vehicle: saline with Tween-80): 100 % of control
T/C (dose: 15.0 mg/kg/injection, schedule: Q01DX005 (ip), vehicle: saline with Tween-80): 100 % of control
T/C (dose: 30.0 mg/kg/injection, schedule: Q01DX005 (ip), vehicle: saline with Tween-80): 100 % of control

COC(=O)/C=C(\C)Oc1cc(Cl)c(Cl)cc1Cl
T/C [16]: 91 % of control
T/C [18]: 87 % of control

ClCCN(CCCl)c1ccc(/C=N/Nc2ccnc3cc(Cl)ccc23)cc1
T/C [12]: 95 % of control
T/C [16]: 101 % of control
T/C [17]: 93 % of control

O=C1N(c2ccccc2)N=C2CCCCCCCCCCC12O (stereo not given)
T/C (dose: 50.0 mg/kg/injection, schedule: Q01DX005 (ip), vehicle: Klucel (hydroxypropylcellulose) (HPC)): 93 % of control
T/C (dose: 100.0 mg/kg/injection, schedule: Q01DX005 (ip), vehicle: Klucel (hydroxypropylcellulose) (HPC)): 97 % of control
T/C (dose: 200.0 mg/kg/injection, schedule: Q01DX005 (ip), vehicle: Klucel (hydroxypropylcellulose) (HPC)): 94 % of control

NNC(=O)CCC(N)C(=O)O (stereo not given)
T/C (dose: 50.0 mg/kg/injection, schedule: Q01DX009 (ip), vehicle: saline sonified): 100 % of control
T/C [13]: 95 % of control
T/C (dose: 100.0 mg/kg/injection, schedule: Q01DX009 (ip), vehicle: saline sonified): 113 % of control
T/C [14]: 90 % of control
T/C [15]: 109 % of control

COCC1(CCC(C)=C(C)C)Nc2ccc(C(=O)O)cc2CC1Cl (stereo not given)
T/C (dose: 1.25 mg/kg/injection, schedule: Q01DX005 (ip), vehicle: Klucel (hydroxypropylcellulose) (HPC)): 98 % of control
T/C (dose: 2.5 mg/kg/injection, schedule: Q01DX005 (ip), vehicle: Klucel (hydroxypropylcellulose) (HPC)): 101 % of control
